Results as given in patent US4710568A, “Carbapenem antibiotics” (priority 1986, dated 1987).
Converted amounts (≈) assume the structure as drawn. Like-named read-outs stand apart in the source and are kept apart here.

What was measured:
S. aureus A-9537 = experiment: MIC by tube dilution in Nutrient Broth; format: cell-based; conditions: additional data, overnight at 37° C.
P. vulgaris A21559 = experiment: MIC by tube dilution in Nutrient Broth; format: cell-based; conditions: additional data; overnight at 37° C.
P. morganii A15153 = experiment: MIC by tube dilution in Nutrient Broth; format: cell-based; conditions: additional data (M. morganii A15153); overnight at 37° C.
P. aeruginosa A21213 = experiment: MIC by tube dilution in Nutrient Broth; format: cell-based; conditions: additional data; overnight at 37° C.
[1] = half-life in phosphate buffer pH 7.4; format: physicochemical; conditions: for t1/2: pH 7.4
Description: To a solution of p-nitrobenzyl 3-[2-(1-pyridinium)ethylthio]-6α-[1-(R)-hydroxyethyl]-7-oxo-1-azabicyclo(3.2.0)hept-2-ene-carboxylate diphenylphosphate (0.16 g, 0.22 mmol) in wet tetrahydrofuran (10 mL) was added ether (10 mL), potassium phosphate monobasic-sodium hydroxide buffer pH 7.4 (16 mL, 0.05M) and 10% palladium on charcoal (0.16 g). The resulting mixture was hydrogenated under 40 psi for 1 h at 25° C. The two phases were separated and the organic phase was extracted with water (2×3 mL). The aqueous solutions were combined, washed with ether (2×10 mL) and poured on top of a column (1.5×6.2 cm) of μ-bondapak C-18 after the traces of organic solvents have been removed under vacuum.
To a solution of p-nitrobenzyl 3-[2-(1-(3,5-dimethylpyridinium))ethylthio]-6α-[1-(R)-hydroxyethyl]- 7-oxo-1-azabicyclo(3.2.0)hept-2-ene-2-carboxylate diphenylphosphate (0.600 g, 0.80 mmol) in wet tetrahydrofuran (36 mL) was added ether (36 mL), potassium phosphate monobasic-sodium hydroxide buffer (0.05M, pH 7.4, 44 mL) and 10% palladium on charcoal (0.60 g). The resulting mixture was hydrogenated under 40 psi at 23° C. for 1.25 h. The organic layer was separated and extracted with buffer (2×5 mL). […] Elution of the column with water and lyophilization of the appropriate fractions gave the title compound 0.186 g (64%) as a yellowish powder, ir (KBr) .nu.max : 3700-3100 (OH), 1760 (C= O of β-lactam), 1595 cm^-1 (carboxylate), ^1 Hmr (D2 O) δ: 1.21 (3H, d, J=6.3 Hz, CH3 CHOH), 2.45 (6H, s, CH3 on pyridinium), 2.81 (d, J=9.2 Hz, H-4), 2.96 (d, J=9.2 Hz, H-4), 3.22 (dd, J=2.6 Hz, J=6.2 Hz, H-6), 3.40 (t, J=6.2 Hz, CH2 S), 3.84 (dd, J=9.2 Hz, J=2.6 Hz, H-5), 4.15 (m, CH3 CHOH), 4.71 (t, J=6.2 Hz, CH2 N^+), 8.21 (1H, s, Hp of pyridinium), 8.46 (2H, s, Ho of pyridinium), uv (H2 O) λmax : 279 (ε8345), 296 (ε7714) m, [α]D^23 +40.7 (c 0.53, H2 O), .tau.1/2 =16.9 h (measured at a concentration of […] in phosphate buffer pH 7.4 at 36.8° C.). […]

S. pneumoniae A-9585 = experiment: MIC by tube dilution in Nutrient Broth; format: cell-based; conditions: additional data; overnight at 37° C.
S. pyogenes A-9604 = experiment: MIC by tube dilution in Nutrient Broth; format: cell-based; conditions: additional data; overnight at 37° C.
[2] = system: S. aureus (Pen-res.) A-9606; experiment: MIC by tube dilution in Nutrient Broth; format: cell-based; conditions: additional data, overnight at 37° C.
S. faecalis A20688 = experiment: MIC by tube dilution in Nutrient Broth; format: cell-based; conditions: additional data; overnight at 37° C.
E. coli A20341-1 = experiment: MIC by tube dilution in Nutrient Broth; format: cell-based; conditions: overnight at 37° C.
K. pneumoniae A-9664 = experiment: MIC by tube dilution in Nutrient Broth; format: cell-based; conditions: additional data; overnight at 37° C.
P. mirabilis A-9900 = experiment: MIC by tube dilution in Nutrient Broth; format: cell-based; conditions: additional data; overnight at 37° C.
P. rettgeri A22424 = experiment: MIC by tube dilution in Nutrient Broth; format: cell-based; conditions: additional data; overnight at 37° C.
P. aeruginosa A-9843A = experiment: MIC by tube dilution in Nutrient Broth; format: cell-based; conditions: additional data; overnight at 37° C.
E. coli A15119 = experiment: MIC by tube dilution in Nutrient Broth; format: cell-based; conditions: overnight at 37° C.
K. pneumoniae A20468 = experiment: MIC by tube dilution in Nutrient Broth; format: cell-based; conditions: additional data; overnight at 37° C.
S. marcescens A20019 = experiment: MIC by tube dilution in Nutrient Broth; format: cell-based; conditions: additional data; overnight at 37° C.
E. cloacae A-9659 = experiment: MIC by tube dilution in Nutrient Broth; format: cell-based; conditions: additional data; overnight at 37° C.
E. cloacae A-9656 = experiment: MIC by tube dilution in Nutrient Broth; format: cell-based; conditions: additional data; overnight at 37° C.
[3] = Escherichia coli, A15119, additional data, read-out: MIC

C[C@@H](O)[C@H]1C(=O)N2C(C(=O)[O-])=C(SC3CCCCC3[n+]3ccccc3)C[C@H]12 (single isomer, unassigned) [Ex. 16 (cmp. "B"), (5R,6S)3-[2-[(R or S)-(1-pyridinium)]-1-(R or S)-cyclohexylthio]-6-[1-(R)-hydroxyethyl]-7-oxo-1-azabicyclo(3.2.0)hept-2-ene-2-carboxylate]
MIC (S. aureus A-9537): 0.13 µg/mL (≈ 0.335 µM)
MIC (P. vulgaris A21559): 0.13 µg/mL (≈ 0.335 µM)
MIC (P. morganii A15153): 0.5 µg/mL (≈ 1.29 µM)
MIC (P. aeruginosa A21213): 8 µg/mL (≈ 20.6 µM)
t1/2 [1]: 20.2 h

C[C@@H](O)[C@H]1C(=O)N2C(C(=O)[O-])=C(SC3CCCCC3[n+]3ccccc3)C[C@H]12 (single isomer, unassigned) [Ex. 16 (cmp. "A"), (5R,6S)3-[2-[(R or S)-(1-pyridinium)]-1-(R or S)-cyclohexylthio]-6-[1-(R)-hydroxyethyl]-7-oxo-1-azabicyclo(3.2.0)hept-2-ene-2-carboxylate]
MIC (S. pneumoniae A-9585): 0.004 µg/mL (≈ 0.0103 µM)
MIC (S. pyogenes A-9604): 0.004 µg/mL (≈ 0.0103 µM)
MIC (S. aureus A-9537; 50% serum): 0.06 µg/mL (≈ 0.154 µM)
MIC (S. aureus A-9537): 0.06 µg/mL (≈ 0.154 µM)
MIC ([2]; Staphylococcus aureus, read-out: MIC): 0.13 µg/mL (≈ 0.335 µM)
MIC (S. faecalis A20688): 4 µg/mL (≈ 10.3 µM)
MIC (E. coli A20341-1; additional data): 0.06 µg/mL (≈ 0.154 µM)
MIC (K. pneumoniae A-9664): 0.13 µg/mL (≈ 0.335 µM)
MIC (P. mirabilis A-9900): 0.13 µg/mL (≈ 0.335 µM)
MIC (P. vulgaris A21559): 0.06 µg/mL (≈ 0.154 µM)
MIC (P. morganii A15153): 0.13 µg/mL (≈ 0.335 µM)
MIC (P. rettgeri A22424): 4 µg/mL (≈ 10.3 µM)
MIC (P. aeruginosa A-9843A): 32 µg/mL (≈ 82.4 µM)
MIC (P. aeruginosa A21213): 2 µg/mL (≈ 5.15 µM)
half-life ([1]; pH 7.4, t1/2): 16.6 h

Cc1cccc(C)[n+]1CCSC1=C(C(=O)[O-])N2C(=O)[C@H]([C@@H](C)O)[C@H]2C1 [Ex. 12]
MIC (E. coli A15119; [3]): 0.03 µg/mL (≈ 0.0828 µM)

CC(C[n+]1ccccc1)SC1=C(C(=O)[O-])N2C(=O)[C@H]([C@@H](C)O)[C@H]2C1 (single isomer, unassigned) [Ex. 15 (cmp. "B")]
MIC (S. pneumoniae A-9585): 0.001 µg/mL (≈ 0.00287 µM)
MIC (S. pyogenes A-9604): 0.001 µg/mL (≈ 0.00287 µM)
MIC (S. aureus A-9537; 50% serum): 0.016 µg/mL (≈ 0.0459 µM)
MIC (S. aureus A-9537): 0.004 µg/mL (≈ 0.0115 µM)
MIC [2]: 0.016 µg/mL (≈ 0.0459 µM)
MIC (S. faecalis A20688): 0.5 µg/mL (≈ 1.44 µM)
MIC (E. coli A15119; additional data): 0.008 µg/mL (≈ 0.023 µM)
MIC (E. coli A20341-1; additional data): 0.016 µg/mL (≈ 0.0459 µM)
MIC (K. pneumoniae A-9664): 0.03 µg/mL (≈ 0.0861 µM)
MIC (K. pneumoniae A20468): 0.06 µg/mL (≈ 0.172 µM)
MIC (P. mirabilis A-9900): 0.03 µg/mL (≈ 0.0861 µM)
MIC (P. vulgaris A21559): 0.016 µg/mL (≈ 0.0459 µM)
MIC (P. morganii A15153): 0.06 µg/mL (≈ 0.172 µM)
MIC (S. marcescens A20019): 0.03 µg/mL (≈ 0.0861 µM)
MIC (P. aeruginosa A-9843A): 32 µg/mL (≈ 91.8 µM)
MIC (P. aeruginosa A21213): 1 µg/mL (≈ 2.87 µM)
MIC (E. cloacae A-9659): 0.06 µg/mL (≈ 0.172 µM)

CC(C[n+]1ccccc1)SC1=C(C(=O)[O-])N2C(=O)[C@H]([C@@H](C)O)[C@H]2C1 (single isomer, unassigned) [Ex. 15 (cmp. "A")]
MIC (S. pneumoniae A-9585): 0.004 µg/mL (≈ 0.0115 µM)
MIC (S. pyogenes A-9604): 0.004 µg/mL (≈ 0.0115 µM)
MIC (S. aureus A-9537; 50% serum): 0.06 µg/mL (≈ 0.172 µM)
MIC (S. aureus A-9537): 0.016 µg/mL (≈ 0.0459 µM)
MIC [2]: 0.06 µg/mL (≈ 0.172 µM)
MIC (S. faecalis A20688): 2 µg/mL (≈ 5.74 µM)
MIC (E. coli A15119; additional data): 0.03 µg/mL (≈ 0.0861 µM)
MIC (K. pneumoniae A20468): 0.13 µg/mL (≈ 0.373 µM)
MIC (P. mirabilis A-9900): 0.13 µg/mL (≈ 0.373 µM)
MIC (P. morganii A15153): 0.13 µg/mL (≈ 0.373 µM)
MIC (P. rettgeri A22424): 0.25 µg/mL (≈ 0.718 µM)
MIC (E. cloacae A-9656): 0.25 µg/mL (≈ 0.718 µM)
MIC (P. aeruginosa A-9843A): 8 µg/mL (≈ 23 µM)
MIC (E. cloacae A-9659): 0.13 µg/mL (≈ 0.373 µM)
t1/2 [1]: 15.6 h

COc1ccc[n+](CCSC2=C(C(=O)[O-])N3C(=O)[C@H]([C@@H](C)O)[C@H]3C2)c1 [Ex. 10, 3-[2-(3-methoxy-1-pyridinium)ethylthio]6α-[1'-(R)-hydroxyethyl]-7-oxo-1-azabicyclo(3.2.0)hept-2-ene-2-carboxylate]
MIC (E. coli A20341-1; Escherichia coli, A203411, additional data, read-out: MIC): 0.06 µg/mL (≈ 0.165 µM)

C[C@@H](O)[C@H]1C(=O)N2C(C(=O)[O-])=C(SCC[n+]3cccc(N)c3)C[C@H]12 [Ex. 14, (5R,6S)-3-[2-(3-aminopyridinio)ethylthio]-6-[1-(R)-hydroxyethyl]-7-oxo-1-azabicyclo[3.2.0]hept-2-ene-2-carboxylate]
MIC (E. coli A15119; [3]): 0.03 µg/mL (≈ 0.0859 µM)
